Test results published in US20260061042A1, “POLYNUCLEOTIDE COMPOSITIONS AND USES THEREOF” (Pfizer Inc., priority 2024, published 2026).
Positions count from the first letter of the chain named. Read-outs that look alike come from different tables or passages of the source.

Legend:
Assay in all cases: PapG Luminex ligand binding at equilibrium
[1] = target: T1, E. coli CFT073 PapG-II lectin domain PapGLD variant N96S S89T, SEQ ID NO: 15 (Escherichia coli, UniProt A0A0H2VAQ6, N116S/S109T); conditions: HEPES pH 7.4, 4° C. overnight
T1 sequence (A0A0H2VAQ6 with tags, fused parts or gaps S109T/N116S): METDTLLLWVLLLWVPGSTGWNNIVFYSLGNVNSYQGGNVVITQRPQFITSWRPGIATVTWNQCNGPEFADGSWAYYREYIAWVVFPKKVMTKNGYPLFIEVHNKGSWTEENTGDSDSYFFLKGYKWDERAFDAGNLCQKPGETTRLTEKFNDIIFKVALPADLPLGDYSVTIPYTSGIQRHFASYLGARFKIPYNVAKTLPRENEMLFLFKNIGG
Protocol: (§1) To determine the ability of PapGLD mutants to bind the porcine derived globotetraosyl ceramide ligand GalNAc-Gal-Gal-Glc-ceramide (GbO4), a Luminex ligand binding assay was developed. Surfactant Protein-A (SP-A) was coupled to the surface of MagPlex beads by EDC/NHS, to capture the lipid tail of the globotetraosyl ceramide. The Globotetraosyl ceramide/SP-A beads were incubated with an eight-point threefold titration of PapG in a 96 well flat bottom white plate with final volume of 100 microliters of 50 mM HEPES PH 7.4, 10 mM NaCl, 0.0005% Tween 20 shaking at 300 rpm, 4° C. overnight. After 20-24 hours the ligand binding plates were read on a FlexMap 3D plate reader for measurement of well-bead region specific MFI. Ligand binding equilibrium dissociation constants (Kd) were calculated assuming one site specific binding and interpolated using non-linear curve fitting (GraphPad Prism) as the ligand concentration needed to achieve half-maximal binding. The Luminex derived apparent Kd values are based on approximately fifty bead counts per assay sample.
(§2) To determine Luminex ligand binding affinities of PapG mutants for the synthetic globoside ligand Gal-Glc-phenoxy-octyl-amine (GbO2Mpo), a Luminex ligand binding assay was developed based on the direct coupling of the amine reactive globoside ligand to the EDC/NHS activated carboxylic surface of MagPlex beads. Synthesis of GbO2Mpo ligand with an octyl amine linker (for coupling to beads) was performed via methods described previously. The GbO2Mpo beads were incubated with an 8-point, threefold titration of PapG in a 96-well flat bottom white plate with final volume of 100 μl of 50 mM HEPES pH 7.4, 10 mM NaCl, 0.0005% Tween 20 shaking at 300 rpm, 4° C. overnight. After 20-24 hours the ligand binding plates were read on a FlexMap 3D plate reader for measurement of well-bead region specific MFI.
(§3) Binding of PapG proteins to GbO2 or GbO4 ligands was evaluated using a Luminex platform wherein ligands were coupled to MagPlex beads via surfactant protein A (for […]) or directly using […] conjugation (for […]). This assay was used to rank order binding affinities of the mutants, reported as Kd values interpolated from protein antigen titration curves (Table 7).

[2] = target: T2, E. coli CFT073 PapG-II lectin domain PapGLD variant N96S G122A, SEQ ID NO: 20 (Escherichia coli, UniProt A0A0H2VAQ6, G142A/N116S); conditions: for Kd: HEPES pH 7.4, 4° C. overnight
T2 sequence (A0A0H2VAQ6 with tags, fused parts or gaps N116S/G142A): T1 sequence (A0A0H2VAQ6 with tags, fused parts or gaps S109T/N116S) with T109S, G142A
Protocol: as §1, §2, §3

[3] = target: T3, E. coli CFT073 PapG-II lectin domain PapGLD N96S WT v1, SEQ ID NO: 13 (Escherichia coli, UniProt A0A0H2VAQ6, N116S); conditions: HEPES pH 7.4, 4° C. overnight
T3 sequence (A0A0H2VAQ6 with tags, fused parts or gaps N116S): T1 sequence (A0A0H2VAQ6 with tags, fused parts or gaps S109T/N116S) with T109S
Protocol: as §1, §2, §3

[4] = target: T4, E. coli CFT073 full-length donor strand complemented PapG-II, PapGDSF N96S N286S (Escherichia coli, UniProt A0A0H2VAQ6, N116S/N306S); conditions: HEPES pH 7.4, 4° C. overnight
T4 construct: mouse IgGK signal peptide, C-terminal 8xHis, ExpiCHO, purified
T4 sequence (A0A0H2VAQ6 with tags, fused parts or gaps N116S/N306S): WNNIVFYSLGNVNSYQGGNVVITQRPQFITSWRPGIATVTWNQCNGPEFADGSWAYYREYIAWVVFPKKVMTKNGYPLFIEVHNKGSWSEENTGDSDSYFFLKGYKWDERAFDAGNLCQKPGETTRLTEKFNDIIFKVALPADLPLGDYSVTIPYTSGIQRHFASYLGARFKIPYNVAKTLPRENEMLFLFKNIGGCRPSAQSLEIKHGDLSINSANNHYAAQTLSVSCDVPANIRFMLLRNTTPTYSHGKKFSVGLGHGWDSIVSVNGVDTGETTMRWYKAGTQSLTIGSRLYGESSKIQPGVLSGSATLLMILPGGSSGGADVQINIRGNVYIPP
Protocol: as §1, §2, §3

[5] = target: T5, E. coli CFT073 full-length donor strand complemented PapG-II, PapGDSF variant N96S N242S N286S K172A, SEQ ID NO: 26 (Escherichia coli, UniProt A0A0H2VAQ6, K192A/N116S/N262S/N306S); conditions: for Kd: HEPES pH 7.4, 4° C. overnight
T5 construct: mouse IgGK signal peptide, C-terminal 8xHis, ExpiCHO, purified
T5 sequence (A0A0H2VAQ6 with tags, fused parts or gaps N116S/K192A/N262S/N306S): T4 sequence (A0A0H2VAQ6 with tags, fused parts or gaps N116S/N306S) with K172A, N242S
Protocol: as §1, §2, §3

[6] = GbO2Mpo beads, read-out: Kd (GbO2)
[7] = GbO4 beads, read-out: Kd (GbO4)

Substance | Kd [1, 6] [nM] | Kd [2, 6] [nM] | Kd [3, 6] [nM] | Kd [4, 6] [nM] | binding to GbO2 (in words) [5] | Kd [5, 6] [nM] | Kd [1, 7] [nM] | binding to GbO4 (in words) [2] | Kd [2, 7] [nM] | Kd [3, 7] [nM] | Kd [4, 7] [nM] | binding to GbO4 (in words) [5] | Kd [5, 7] [nM]
Gal-Glc-phenoxy-octyl-amine [GbO2] | 1 | 1.4 | 0.7 | 1.6 | no binding was detected | > 300 |  |  |  |  |  |  | 
GalNAc-Gal-Gal-Glc-ceramide [GbO4] |  |  |  |  |  |  | < 50 | reduced binding | > 300 | 14.1 | 8.8 | no binding was detected | > 300
